Test results published in publication PMC12114375, “Discovery of Hydrazineyl Amide Derivative of Pseudolaric Acid B for Reprogramming Tumor-Associated Macrophages Against Tumor Growth” (Molecules, 2025).

Columns and labels:
[1] = tested on: NOS2 mRNA expression in RAW 264.7 cells; test: qRT-PCR of NOS2 mRNA in IL-4/IL-13-stimulated RAW 264.7 cells; type: cell-based, mouse; details: Mus musculus, RAW264.7, IL-4/IL-13 (20 ng/mL) plus compound 10 μM, 12 h, stimulated control = 100%, mean ± SD, read-out: NOS2 mRNA Relative Expression (%)
Text: We first investigated the impacts of a series of commercially available natural pseudolaric acids or their O-pyranosides (Figure 1) on the pro-tumoral phenotype of TAMs, which play a critical role in anti-tumor immune response modulation. […] In contrast, M1-biased macrophages combat tumor growth and bacterial infections by expressing inducible nitric oxide synthase 2 (NOS2), which catalyzes the production of nitric oxide (NO). Recognizing the pivotal roles of ARG1 and NOS2, we utilized these molecules as key biomarkers and effectors for assessing macrophage immune function. In our experiments, the mouse monocyte–macrophage leukemia cell line RAW 264.7 was induced with IL-4/IL-13 to acquire an M2-like pro-tumoral phenotype. Concurrently, the cells were treated with the pseudolaric acid-related natural products 1–7 at a concentration of 10 μM for 12 h. Additionally, PLX3397 was used as a positive control at a concentration of 0.5 μM. […] As shown in Table 1 and Figure S1A, pseudolaric acid B (1), its deacetoxyl analogue 2 (pseudolaric acid C), and β-D-glucoside 7 substantially attenuated the upregulation of ARG1 mRNA expression induced by IL-4/IL-13, with statistically significant effects. In contrast, bis-carboxylic acids analogs 4 (pseudolaric acid C2) and 6 (demethoxydeacetoxypseudolaric acid B) have no significant impact on ARG1 mRNA expression.
With these carboxylic acid-modified derivatives in hand, we investigated their impact at 10 μM on ARG1 and NOS2 mRNA expression in RAW 264.7 cells pre-stimulated with IL-4/IL-13 to evaluate the effects on the pro-tumor phenotype of macrophages. […] Further removal of one hydroxyl from the glycerol moiety 15 further enhanced the inhibitory effect on ARG1 expression but had no significant impact on NOS2 expression.
Total RNA was isolated from cells using the EZ-press RNA Purification Kit (EZBioscience, Suzhou, China) and subjected to reverse transcription with the 5×HiScript II qRT SuperMix II (Vazyme, Nanjing, China). PCR was performed with the 2×ChamQ Universal SYBR qPCR Master Mix (Vazyme, Nanjing, China). All primers for qRT-PCR are described in Table S1. The 2^−∆∆Ct method was utilized to calculate the fold change in gene expression, with the expression levels in the stimulated group set as the baseline for normalization.

[2] = tested on: Hepa1-6 tumor; test: In vivo anti-tumor efficacy, Hepa1-6 subcutaneous tumor model; details: Hepa1-6 model; for tumor growth inhibitory rate: intraperitoneal injections, once daily
Text: Encouraged by its intriguing cellular activities, we investigated the anti-tumor effect of compound 12 in vivo. The Hepa1-6 liver cancer model, an immunocompetent macrophage-rich subcutaneous murine tumor model, was thus established. […] To further investigate whether the in vivo anti-tumor effect of compound 12 is associated with its inhibition of pro-tumoral macrophages and consequent activation of anti-tumor CD8^+ T cells, we analyzed the infiltration of macrophages and CD8^+ T cells in the tumor tissue of the Hepa1-6 model.
Animal procedures were approved by the Institutional Animal Care and Use Committee of the Shanghai Institute of Materia Medica (approval no. 2024-06-DJ-95). Mice (4–6 weeks old) were housed with five or six mice per cage in a specific pathogen-free room with a 12 h light/dark schedule at 25 °C ± 1 °C and were fed an autoclaved chow diet and water ad libitum. Hepa1-6 cells (2 × 10^6 cells) were subcutaneously implanted in the right flank of C57 BL/6 mice. […] The tumor volumes and body weights were measured twice per week. Tumor volume (TV) was calculated as follows: TV = (length × width^2)/2. Significant differences between the treated versus the vehicle groups were determined using the Student’s t-test. […] Viability was determined by staining with either the LIVE/DEAD® Fixable Violet Dead Cell Stain Kit (Invitrogen, Waltham, […], USA) or the Zombie Aqua™ Fixable Viability Kit (Biolegend, San Diego, CA, USA). Data were analyzed using FlowJo10.4 software.
Figure 4 Compound 12 inhibited Hepa1-6 tumor growth in vivo and remodeled the tumor microenvironment. […] The TVs (A) and body weights (B) are presented as the mean ± SEM. * p < 0.05 vs. the vehicle group, determined by the Student’s t-test. […] The infiltration of CD45^+ cells (C), TAMs (D), CD206^+ TAMs (E), ARG1^+ TAMs (F), CD8^+ T cells (G), GRZB^+ CD8^+ T cells (H), IFN γ^+ CD8^+ T cells (I), and TNF α^+ CD8^+ T cells (J) was tested (n = 8 mice in the vehicle group and n = 7 mice in the 12-treated group). * p < 0.05, ** p < 0.01, *** p < 0.001 vs. the vehicle group, determined by the Student’s t-test.

## COC(=O)C1=CC[C@@]23CC[C@@H]([C@@](C)(/C=C/C=C(\C)C(=O)NNCCO)OC2=O)[C@@]3(OC(C)=O)CC1 [compound 12, Methyl(3R,4S,4aS,9aR)-4a-acetoxy-3-((1E,3E)-5-(2-(2-hydroxyethyl)hydrazineyl)-4-methyl-5-oxopenta-1,3-dien-1-yl)-3-methyl-1-oxo-3,4,4a,5,6,9-hexahydro-1H-4,9a-ethanocyclohepta[c]pyran-7-carboxylate]
[1]
  activity at 10 µM: 182 ± 5.3%
[2]; 25 and 50 mg/kg
  body weight during the treatment: no obvious loss of body weight
[2]; 25 mg/kg
  tumor growth inhibitory rate: 53.2%
[2]; 50 mg/kg
  tumor growth inhibitory rate: 48.3%
